Series [1] concerns PGF2α-sensitive receptor provisionally termed FPVASC. Put plainly: Relaxation of smooth muscle of isolated rabbit jugular vein. As to conditions: isolated rabbit jugular vein relaxation; read-out: EC50 (nM) FPVASC. The class given is cell-based. On the procedure: (§1) Activity at different prostanoid receptors was measured in vitro in isolated smooth muscle preparations. FP-activity was measured as contraction of the isolated feline iris sphincter. EP1-activity was measured as contraction of the longitudinal smooth muscle of the isolated guinea pig ileum. EP3-activity was measured as inhibition of the twitch response induced by electrical field stimulation in the isolated guinea pig was deferens and as contraction of the longitudinal smooth muscle of the isolated chick ileum. Activity was also measured as relaxation of smooth muscle of isolated rabbit jugular vein a preparation which appears to contain a unique PGF2α-sensitive receptor provisionally termed FPVASC. TP-vasoconstrictor activity was measured as contraction of rings of the isolated rat thoracic aorta. Effects on platelets from healthy human donors were measured by incubating platelet-rich plasma with the compounds described herein. Inhibition of aggregation was determined by the ability of the compounds described herein to inhibit platelet aggregation in platelet-rich plasma induced by 20 μM ADP.

Series [2] deals with T1, EP3 receptor (UniProt A0A286XLZ9).
T1 sequence (A0A286XLZ9 1-363): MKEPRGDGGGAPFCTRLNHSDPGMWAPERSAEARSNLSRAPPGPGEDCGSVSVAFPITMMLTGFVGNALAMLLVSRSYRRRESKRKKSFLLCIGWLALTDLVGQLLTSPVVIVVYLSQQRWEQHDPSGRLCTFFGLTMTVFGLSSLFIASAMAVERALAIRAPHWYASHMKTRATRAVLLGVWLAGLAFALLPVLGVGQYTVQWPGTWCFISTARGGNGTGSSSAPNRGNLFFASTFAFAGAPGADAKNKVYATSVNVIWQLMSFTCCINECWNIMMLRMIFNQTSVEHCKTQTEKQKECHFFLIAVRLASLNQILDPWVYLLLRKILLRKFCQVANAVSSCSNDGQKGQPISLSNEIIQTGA
Put plainly: EP3-activity: inhibition of the twitch response induced by electrical field stimulation in the isolated guinea pig vas deferens. The settings on record: pa = printed beside some values, read-out: EC50 (nM) EP3, first value of the cell. The class given is cell-based. As for the experimental part:
as §1

Series [3] relates to Dog eye (miosis). Put plainly: Miosis in dogs after topical dosing. The class given is in vivo.
The subject of series [4] is Dog eye (hyperemia). Put plainly: Ocular surface hyperemia in dogs after topical dosing. The class given is in vivo. On the set-up: scale not given here.
Series [5] deals with T2, TP receptor (Rattus norvegicus, UniProt P34978).
T2 construct: rings of the isolated rat thoracic aorta; from tissue; host or cells: isolated rat thoracic aorta rings
T2 sequence (P34978 1-341): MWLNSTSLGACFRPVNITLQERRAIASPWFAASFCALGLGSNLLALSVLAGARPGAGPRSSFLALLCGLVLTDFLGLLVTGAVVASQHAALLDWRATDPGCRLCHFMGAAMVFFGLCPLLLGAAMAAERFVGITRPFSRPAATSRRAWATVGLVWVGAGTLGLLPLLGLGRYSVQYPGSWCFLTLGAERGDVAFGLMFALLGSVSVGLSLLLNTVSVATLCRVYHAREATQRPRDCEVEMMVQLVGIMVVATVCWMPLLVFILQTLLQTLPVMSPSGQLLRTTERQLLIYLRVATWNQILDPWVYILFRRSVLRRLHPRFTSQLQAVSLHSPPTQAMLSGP
Nature of the series: TP-vasoconstrictor activity: contraction of rings of the isolated rat thoracic aorta. The class given is cell-based. As to conditions: isolated rat thoracic aorta contraction; read-out: EC50 (nM) TP. As for the experimental part:
as §1

The target of series [6] is T3, EP1 receptor (Cavia porcellus, UniProt A0A286XHJ6).
T3 sequence (A0A286XHJ6 1-405): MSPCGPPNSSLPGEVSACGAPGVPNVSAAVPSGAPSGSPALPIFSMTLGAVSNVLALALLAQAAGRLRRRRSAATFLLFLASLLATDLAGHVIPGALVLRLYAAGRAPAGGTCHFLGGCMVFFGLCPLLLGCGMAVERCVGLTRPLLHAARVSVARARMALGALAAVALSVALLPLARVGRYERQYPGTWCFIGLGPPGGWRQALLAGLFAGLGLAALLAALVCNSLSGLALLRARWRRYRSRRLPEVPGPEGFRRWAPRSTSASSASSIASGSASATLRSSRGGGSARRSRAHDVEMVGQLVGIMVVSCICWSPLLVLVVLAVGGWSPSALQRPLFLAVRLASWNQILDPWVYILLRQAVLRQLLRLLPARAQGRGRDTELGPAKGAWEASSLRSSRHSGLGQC
Put plainly: EP1-activity: contraction of the longitudinal smooth muscle of the isolated guinea pig ileum. It counts as cell-based. On the procedure: as §1

The test system of series [7] is Dog intraocular pressure. Put plainly: Dog intraocular pressure by applanation pneumatonometry. The class given is in vivo. The settings on record: dogs. On the procedure: The compounds were prepared at the said concentrations in a vehicle comprising 0.1% polysorbate 80 and 10 mM TRIS base. Dogs were treated by administering 25 μl to the ocular surface, the contralateral eye received vehicle as a control. Intraocular pressure was measured by applanation pneumatonometry. Dog intraocular pressure was measured immediately before drug administration and at 6 hours thereafter.

For series [8], the system named is ocular surface. The settings on record: humans; cited from earlier work.
Series [9] concerns intraocular pressure. The settings on record: ocular; cited from earlier work.

One may read the EC50 as the concentration giving half of the maximal effect. Turning to `O=C(O)CCC/C=C\C[C@@H]1[C@@H](/C=C/[C@@H](O)CCc2cccs2)[C@H](O)C[C@@H]1O`, the EC50 in series [1] was 20 nM; in series [2] it was 43 nM; in [5] it was 4010 nM; in series [6] it was greater than 10000 nM. For the same molecule, the Miosis entry in series [3] (0.1%) is “pinpt”. Besides, the “Hyp (hyperemia score)” value in series [4] (0.1%) turned out to be 0.38.

As for `O=C(O)CCC/C=C\C[C@@H]1[C@@H](/C=C/[C@H](O)CCc2cccs2)[C@H](O)C[C@@H]1O`, the EC50 in series [1] is 31 nM; in series [2], greater than 10000 nM; in series [5] it was greater than 10000 nM; in [6] it was greater than 10000 nM. The Miosis entry in series [3] (0.1%) is “pinpt”. The “Hyp (hyperemia score)” value in [4] (0.1%) came to 0.79.

For the molecule `CO[C@H](/C=C/[C@@H]1[C@@H](C/C=C\CCCC(=O)O)[C@@H](O)C[C@H]1O)CCc1ccsc1`, the EC50 is 2.1 nM in series [1], 189 nM in [2], roughly 10000 nM in [5] and greater than 10000 nM in series [6]. For the same molecule, the Miosis entry in series [3] (0.1%) is given as “pinpt”. Also, in series [4] (0.1%), the “Hyp (hyperemia score)” value is given as 0.83.

Turning to `O=C(O)CCC/C=C\C[C@@H]1[C@@H](/C=C/[C@@H](O)CCc2ccco2)[C@H](O)C[C@@H]1O`, the EC50 is greater than 7690 nM in series [1], 44 nM in series [2], roughly 10000 nM in series [5] and greater than 10000 nM in series [6]. For the same molecule, the Miosis entry in series [3] (0.01%) is reported as “mild”; in series [3] (0.1%) it was “pinpoint”. The “Hyp (hyperemia score)” value was 0.54 in series [4] (0.01%) and 0.67 in series [4] (0.1%).

Turning to `O=C(O)CCC/C=C\C[C@@H]1[C@@H](/C=C/[C@@H](O)CCc2ccsc2Cl)[C@H](O)C[C@@H]1O`, the EC50 is 47 nM in series [1], 1000 nM in [2], 2450 nM in [5] and greater than 10000 nM in series [6]. In addition, in [3] (0.1%), the Miosis result is given as “pinpoint”. Besides, the “Hyp (hyperemia score)” value in series [4] (0.1%) came to 1.13.

As to `Cc1cc(CC[C@H](O)/C=C/[C@@H]2[C@@H](C/C=C\CCCC(=O)O)[C@@H](O)C[C@H]2O)cs1`, the EC50 is greater than 7140 nM in series [1], 305 nM in series [2], roughly 10000 nM in series [5] and greater than 10000 nM in series [6]. Also, the Miosis entry in series [3] (0.01%) and in series [3] (0.1%) was “pinpt” throughout. The results for the “Hyp (hyperemia score)” value in series [4] (0.01%) and in series [4] (0.1%) were 0.42 and 1.38, respectively.

Regarding `O=C(O)CCC/C=C\C[C@@H]1[C@@H](/C=C/[C@@H](O)CCc2ccc(Br)s2)[C@H](O)C[C@@H]1O`, the EC50 is 8.5 nM in series [1], 36 nM in series [2], 5080 nM in series [5] and greater than 10000 nM in series [6]. The Miosis entry in series [3] (0.1%) is given as “pinpoint”. Moreover, the “Hyp (hyperemia score)” value in [4] (0.1%) came to 1.0.

Regarding `O=C(O)CCC/C=C\C[C@@H]1[C@@H](/C=C/[C@@H](O)CCc2cc(Cl)sc2Cl)[C@H](O)C[C@@H]1O` [Compound 4g, 7-[3α,5α-Dihydroxy-2-(3α-hydroxy-5-(3-(2,5-dichloro)thienyl)-1E-pentenyl)cyclopentyl]-5Z-heptenoic acid], the “ocular hypotensive effect (in words)” value in [7] is “pronounced ocular hypotensive effect”.

On to `O=C(O)CCC/C=C\C[C@@H]1[C@@H](/C=C/[C@@H](O)CCc2ccsc2)[C@H](O)C[C@@H]1O` [Compound 4p, 7-[3α,5α-Dihydroxy-2-(3α-hydroxy-5-(3-thienyl)-1E-pentenyl)cyclopentyl]-5Z-heptenoic acid], for which, in series [7], the “ocular hypotensive effect (in words)” value is reported as “excellent ability to lower intraocular pressure”.

In the case of `NC(=O)CCC/C=C\CC1C(O)CC(O)C1/C=C/C(O)CCc1sccc1I` (stereo not drawn) [Compound 8t], the “ocular hypotensive effect (in words)” value in series [7] was “pronounced ocular hypotensive effect”.

On to `Cc1c(Br)csc1CCC(O)/C=C/C1C(O)CC(O)C1C/C=C\CCCC(N)=O` (stereo not drawn) [Compound 8u], for which the “ocular hypotensive effect (in words)” value in [7] is listed as “pronounced ocular hypotensive effect”.

Turning to `NC(=O)CCC/C=C\CC1C(O)CC(O)C1/C=C/C(O)CCc1scc(Br)c1Br` (stereo not drawn) [Compound 8v], the “ocular hypotensive effect (in words)” value in [7] is on record as “pronounced ocular hypotensive effect”.

As for `O=C(O)CCC/C=C\C[C@@H]1[C@@H](/C=C/[C@@H](O)CCc2ccsc2)[C@H](O)C[C@@H]1O` [drawing 12], the EC50 is 9.2 nM in series [1], 400 nM in series [2], 2460 nM in [5] and 2000 nM in series [6]. Moreover, the Miosis entry in [3] (0.1%) is recorded as “pinpoint”. Besides, the “Hyp (hyperemia score)” value in series [4] (0.1%) came out at 0.6.

As for `O=C(O)CCC/C=C\C[C@@H]1[C@@H](/C=C/[C@@H](O)CCc2cc(Cl)sc2Cl)[C@H](O)C[C@@H]1O` [drawing 28], the EC50 in series [1] is 7.7 nM; in series [2] it was greater than 10000 nM; in series [5], 2300 nM; in [6], greater than 10000 nM. For the same molecule, the Miosis entry in series [3] (0.1%) was “pinpt”. In addition, the “Hyp (hyperemia score)” value in series [4] (0.1%) is given as 0.5.

`CCCCC[C@H](O)/C=C/[C@@H]1[C@@H](C/C=C\CCCC(=O)OC(C)C)[C@@H](O)C[C@H]1O` [isopropyl ester of PGF2α]: the “side effects of topical ocular use (in words)” value in series [8] is “ocular surface (conjunctival) hyperemia and foreign-body sensation”. In series [9], the “hypotensive potency versus parent compound (in words)” value is “significantly greater hypotensive potency than the parent compound”.

As to prostaglandin F2α [PGF2α], in [8], the “side effects of topical ocular use (in words)” value is “ocular surface (conjunctival) hyperemia and foreign-body sensation”.

(Values after patent publication US6602900B2, “Cyclopentane heptan(ENE)oic acid, 2-heteroarylalkenyl derivatives as therapeutic agents” (Allergan, Inc., priority 1992, dated 2003).)
